# Laboratory results published in patent US20090304607A1, “Antibacterial Flavor and Fragance Composition and Halitosis-Inhibition Flavor and Fragrance Composition and Oral Care Composition Containing the Same” (TAKASAGO INTERNATIONAL CORPORATION, priority 2002, published 2009).
# Assays:
# [1] = system: volatile sulfide production from saliva; test: Inhibition of volatile sulfide production from saliva (anaerobic culture, FPD-GC of head space); type: cell-based; settings: saliva cultured 37° C. 3 hours under nitrogen
# Experimental: A test of inhibitory activity of the fragrance materials on volatile sulfide production from saliva was carried out according to the following method. Saliva was collected in a 50 ml of sterile centrifuge tube from testee without brushing teeth in the morning between 9 to 10 o'clock, and was cooled on ice until use. Each of 2 ml of the saliva was put into sterile test tube with screw cap aseptically. Saliva only was used as control and that mixed with 20 μl of ethanol was used as reference.
# After the addition of samples, the inner air was replaced nitrogen in a stream of nitrogen gas at 0.5 atm under stirring with a voltex mixer. Cultivation was carried out at 37° C. for 3 hours and cooled on ice until use. Volatile sulfides were analyzed by a gas chromatograph (FPD-GC) with a flame photometer. In this connection, the samples after the culture were stored in ice-water until their analysis.
# Column: 6 m×4 mm i.d. (glass packed column) Column liquid phase: 20% DNP on 80/100 mesh Chromosorb W AW DMCS Column temperature: 100° C. Carrier gas (flow rate): N2 (40 ml/min) Injection temperature: 120° C. Detector: FPD (flame photometric detector; fitted with 393 nm filter for sulfur compound detection) Detector temperature: 150° C.
# The inhibition rate of methyl mercaptan was determined according to the following equation:
# Inhibition rate (%) of methyl mercaptan={(Blank−Sample)/Blank}×100
# Blank and Sample in the equation represent the quantities of producing methyl mercaptan in respective cases. […]
# [2] = system: Fusobacterium nucleatum JCM 6328 (Fn-1); test: Bactericidal activity, CFU measuring method per Quantitative Suspension Test (EN 1276); type: cell-based; settings: for Results of Judgment 30 sec (Log decrease of number of bacteria vs control): 30 sec contact; for Results of Judgment 1 min (Log decrease of number of bacteria vs control): 1 min contact
# Experimental: The strain used in the bactericidal activity was obtained from The Institute of Physical and Chemical Research which was known to be a pathogen of periodontal disease and also known to produce volatile sulfides.
# Fn-1 was cultured on slants of GAM medium (Nissui Pharmaceutical Co. Ltd.) and added physical saline to make a cell suspension. In detail, to each slant cultured at 37° C. for 24 hours under an anaerobic condition using BBL gas-pack anaerobic system, 2 ml of physiological saline was added and scraped off the microbes with a transfer loop to make a cell suspension. This operation was repeated twice, and the combined suspension was centrifugalized, added again a half amount of physiological saline to the precipitate to make the suspension. The suspension was filtered through two sheets of sterile gauze to remove agar pieces and fibrous cells. The filtrate was centrifugalized again, the precipitate was re-suspended in physiological saline to use for the tests.
# As for test solutions, fragrance samples were dissolved in equal weight of dimethylformamide (DMF) and were diluted with ethanol to necessary concentrations (volume/volume).
# Each test solution (30 μl) was added to sterile distilled water and stirred or subjected to ultrasonic treatment to dissolve sample or to form a homogeneous suspension.
# To each solution or homogeneous suspension, 333 μl of previous cell suspension of Fn-1 was added and stirred. After 30 seconds and 1 minute, each 333 μl was added to 3 ml of D/E Neutralization broth (DIFCO) (10 fold dilution), 100 fold and 1000 fold dilution liquids were made similarly. Each 50 μl of the liquid was spread on 15 ml of Trypticase soy agar plates using Autoplate 4000 (Spiral Biotec Co. Ltd., MD, USA) and were cultivated at 37° C. for 40 hours under anaerobic condition. After the cultivation, colonies were counted by Q-Count (Spiral Biotec Co. Ltd., MD, USA) to determine CFU/ml.
# Suspension, as a control, consisted of 3 ml of water and 333 μl of the cell suspension, and also suspension as a reference, consisted of 3 ml of water, 30 μl of ethanol and 333 μl of the cell suspension was employed to determine CFU/ml thereof.
# “30 sec” and “1 min” were shown the sampling time, and “Log inc.” was shown the mean Log value of the control.
# [3] = 1000 ppm, read-out: CH3SH Inhib. %
# [4] = 500 ppm, read-out: CH3SH Inhib. %
# [5] = 100 ppm, read-out: CH3SH Inhib. %
compound,measurement,setting,value
C=CCOC(=O)CCC1CCCCC1 [Allyl cyclohexylpropionate],CH3SH Inhib. %,[1]; 500 ppm,92%
C=CCOC(=O)CCCCCC [Allyl enanthate],inhibition at 1000 ppm,[1]; [3],100%
CC1(C)C[C@H]2[C@H]1CC[C@]1(C)CCC[C@@]2(O)C1 [Caryophyllene alcohol],CH3SH Inhib. %,[1]; 500 ppm,100%
same,Results of Judgment 30 sec (Log decrease of number of bacteria vs control),[2]; 500 ppm,1.13 Log
same,Results of Judgment 1 min (Log decrease of number of bacteria vs control),[2]; 500 ppm,2.25 Log
COC(/C=C/c1ccccc1)OC [Cinnamicaldehyde dimethyl acetal],CH3SH Inhib. %,[1]; 1000 ppm,100%
O=C/C=C/c1ccccc1 [Cinnamicaldehyde],inhibition at 2000 ppm,"[1]; 2000 ppm, read-out: CH3SH Inhib. %",100%
same,Results of Judgment 30 sec (Log decrease of number of bacteria vs control),[2]; 2000 ppm,>3.42 Log
same,Results of Judgment 1 min (Log decrease of number of bacteria vs control),[2]; 2000 ppm,>3.42 Log
CC(C)=CCCC(C)=CC=O [Citral],inhibition at 500 ppm,[1]; [4],100%
CCCc1ccc(O)c(OC)c1 [Dihydroeugenol],CH3SH Inhib. %,[1]; 2000 ppm,100%
same,Results of Judgment 30 sec (Log decrease of number of bacteria vs control),[2]; 2000 ppm,>3.42 Log
same,Results of Judgment 1 min (Log decrease of number of bacteria vs control),[2]; 2000 ppm,>3.42 Log
CC(C)=CCC/C(C)=C/CCC(C)CCO (stereo not shown) [Dihydrofarnesol],CH3SH Inhib. %,[1]; 300 ppm,100%
same,Results of Judgment 30 sec (Log decrease of number of bacteria vs control),[2]; 300 ppm,>3.42 Log
same,Results of Judgment 1 min (Log decrease of number of bacteria vs control),[2]; 300 ppm,>3.42 Log
CCOC(=O)c1ccccc1O [Ethyl salicylate],inhibition at 1000 ppm,[1]; [3],100%
C=CCc1ccc(O)c(OC)c1 [Eugenol],inhibition at 500 ppm,[1]; [4],100%
CC(C)=CCCC(C)=CCCC(C)=CCO [Farnesol],inhibition at 100 ppm,[1]; [5],100%
same,Results of Judgment 30 sec (Log decrease of number of bacteria vs control),[2]; 100 ppm,3.70 Log
same,Results of Judgment 1 min (Log decrease of number of bacteria vs control),[2]; 100 ppm,>4.18 Log
CCCCCC=O [Hexylaldehyde],CH3SH Inhib. %,[1]; 300 ppm,82%
CC(C)c1cccc(=O)c(O)c1 [Hinokitiol],inhibition at 1000 ppm,[1]; [3],100%
same,Results of Judgment 30 sec (Log decrease of number of bacteria vs control),[2]; 1000 ppm,>5.24 Log
same,Results of Judgment 1 min (Log decrease of number of bacteria vs control),[2]; 1000 ppm,>5.24 Log
CC=Cc1ccc(O)c(OC)c1 [Isoeugenol],inhibition at 500 ppm,[1]; [4],100%
same,Results of Judgment 30 sec (Log decrease of number of bacteria vs control),[2]; 500 ppm,>3.93 Log
same,Results of Judgment 1 min (Log decrease of number of bacteria vs control),[2]; 500 ppm,>3.93 Log
C=CC(C)(CCC=C(C)C)OC(C)=O (stereo not shown) [Linalyl acetate],inhibition at 500 ppm,[1]; [4],43%
CC1CCC(C(C)C)C(O)C1 (stereo not shown) [Menthol],inhibition at 3000 ppm,"[1]; 3000 ppm, read-out: CH3SH Inhib. %",100%
CC(C)[C@@H]1CC[C@@H](C)C[C@H]1OCC(O)CO (stereo partly shown) [Menthoxypropanediol],CH3SH Inhib. %,[1]; 1000 ppm,100%
COC(=O)c1ccccc1O [Methyl salicylate],inhibition at 1000 ppm,[1]; [3],100%
CC1=CCC(=C(C)C)CC1 [Terpinolene],inhibition at 100 ppm,[1]; [5],36%
same,Results of Judgment 30 sec (Log decrease of number of bacteria vs control),[2]; 100 ppm,1.16 Log
same,Results of Judgment 1 min (Log decrease of number of bacteria vs control),[2]; 100 ppm,1.63 Log
Cc1ccc(C(C)C)c(O)c1 [Thymol],inhibition at 300 ppm,"[1]; 300 ppm, read-out: CH3SH Inhib. %",100%
C=C(C)[C@H]1CC=C(C)CC1 [d-Limonene],CH3SH Inhib. %,[1]; 3000 ppm,100%
same,Results of Judgment 30 sec (Log decrease of number of bacteria vs control),[2]; 500 ppm,0.93 Log
same,Results of Judgment 1 min (Log decrease of number of bacteria vs control),[2]; 500 ppm,1.50 Log
COc1ccccc1C=CC=O [o-Methoxycinnamicaldehyde],CH3SH Inhib. %,[1]; 1000 ppm,100%
same,Results of Judgment 30 sec (Log decrease of number of bacteria vs control),[2]; 1000 ppm,2.61 Log
same,Results of Judgment 1 min (Log decrease of number of bacteria vs control),[2]; 1000 ppm,3.85 Log
CCCCCC(C=O)=Cc1ccccc1 [α-Amylcinnamicaldehyde],CH3SH Inhib. %,[1]; 500 ppm,99%
C=C1CCC2CC1C2(C)C (stereo not drawn) [β-Pinene],inhibition at 500 ppm,[1]; [4],59%
same,Results of Judgment 30 sec (Log decrease of number of bacteria vs control),[2]; 500 ppm,0.71 Log
same,Results of Judgment 1 min (Log decrease of number of bacteria vs control),[2]; 500 ppm,1.12 Log
CCCCCCC1CCC(=O)O1 (stereo not shown) [γ-Decalactone],CH3SH Inhib. %,[1]; 100 ppm,59%
CC1=CCC(C(C)C)=CC1 [γ-Terpinene],inhibition at 500 ppm,[1]; [4],66%
same,Results of Judgment 30 sec (Log decrease of number of bacteria vs control),[2]; 500 ppm,0.94 Log
same,Results of Judgment 1 min (Log decrease of number of bacteria vs control),[2]; 500 ppm,1.26 Log
CCCCCCCC1CCC(=O)O1 (stereo not shown) [γ-Undecalactone],CH3SH Inhib. %,[1]; 100 ppm,70%
L-Carvone,CH3SH Inhib. %,[1]; 1000 ppm,100%
